Structures can show the parent of a compound that is named as a salt.
What follows are compounds tested against human cloned 5-HT6 receptors (Homo sapiens, UniProt P50406) (assay: Evaluation of 5-HT6 binding affinity of test compounds ([3H]-LSD displacement)).
Chain of human cloned 5-HT6 receptors (P50406 whole entry): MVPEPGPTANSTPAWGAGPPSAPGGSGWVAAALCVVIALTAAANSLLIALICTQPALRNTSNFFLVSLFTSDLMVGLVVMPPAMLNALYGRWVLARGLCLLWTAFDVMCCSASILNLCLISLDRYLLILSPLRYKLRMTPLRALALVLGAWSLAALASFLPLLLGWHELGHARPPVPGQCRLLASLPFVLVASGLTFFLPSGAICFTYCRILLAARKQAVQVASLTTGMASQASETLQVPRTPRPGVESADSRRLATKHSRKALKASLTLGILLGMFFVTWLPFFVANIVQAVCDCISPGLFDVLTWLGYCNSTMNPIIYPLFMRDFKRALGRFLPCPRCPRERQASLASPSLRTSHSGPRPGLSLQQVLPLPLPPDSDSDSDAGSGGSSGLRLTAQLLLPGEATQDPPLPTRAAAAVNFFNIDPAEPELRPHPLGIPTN

| SMILES | Ki |
| --- | --- |
| O=S(=O)(c1cccc2ccccc12)c1n[nH]c2ccc(OC3CCNC3)cc12 (centres unmarked) [Example 1, 3-(Naphthalene-1-sulfonyl)-5-(pyrrolidin-3-yloxy)-1H-indazole] | 0.01 to 10 nM |
| CCCCN1CCC(Oc2ccc3[nH]nc(S(=O)(=O)c4cccc5ccccc45)c3c2)C1 (centres unmarked) [Example 2, 5-(1-Butylpyrrolidin-3-yloxy)-3-(1-naphthylsulfonyl)-1H-indazole Hydrochloride] | 0.01 to 10 nM |
| CCCN1CCC(Oc2ccc3[nH]nc(S(=O)(=O)c4cccc5ccccc45)c3c2)C1 (centres unmarked) [Example 3, 3-(Naphthalene-1-sulfonyl)-5-(1-propyl-pyrrolidin-3-yloxy)-1H-indazole Hydrochloride] | 0.01 to 10 nM |
| CC(C)N1CCC(Oc2ccc3[nH]nc(S(=O)(=O)c4cccc5ccccc45)c3c2)C1 (centres unmarked) [Example 4, 5-(1-Isopropyl-pyrrolidin-3-yloxy)-3-(naphthalene-1-sulfonyl)-1H-indazole Hydrochloride] | 0.01 to 10 nM |
| CN1CCC(Oc2ccc3[nH]nc(S(=O)(=O)c4cccc5ccccc45)c3c2)C1 (centres unmarked) [Example 5, 5-(1-Methyl-pyrrolidin-3-yloxy)-3-(naphthalene-1-sulfonyl)-1H-indazole Hydrochloride] | 0.01 to 10 nM |
| O=S(=O)(c1cccc2ccccc12)c1n[nH]c2ccc(OC3CCNCC3)cc12 [Example 6, 3-(1-Naphthylsulfonyl)-5-(piperidin-4-yloxy)-1H-indazole Hydrochloride] | 0.01 to 10 nM |
| O=S(=O)(c1ccccc1)c1n[nH]c2ccc(OC3CCNCC3)cc12 [Example 7, 3-(phenylsulfonyl)-5-(piperidin-4-yloxy)-1H-indazole] | 11 to 25 nM |
| O=S(=O)(c1cccc(F)c1)c1n[nH]c2ccc(OC3CCNCC3)cc12 [Example 8, 3-[(3-fluorophenyl)sulfonyl]-5-(piperidin-4-yloxy)-1H-indazole] | 11 to 25 nM |
| O=S(=O)(c1ccccc1Cl)c1n[nH]c2ccc(OC3CCNCC3)cc12 [Example 9, 3-[(2-chlorophenyl)sulfonyl]-5-(piperidin-4-yloxy)-1H-indazole] | > 45 nM |
| O=S(=O)(c1cccc(Cl)c1)c1n[nH]c2ccc(OC3CCNCC3)cc12 [Example 10, 3-[(3-chlorophenyl)sulfonyl]-5-(piperidin-4-yloxy)-1H-indazole] | 0.01 to 10 nM |
| O=S(=O)(c1ccc(Cl)cc1)c1n[nH]c2ccc(OC3CCNCC3)cc12 [Example 11, 3-[(4-chlorophenyl)sulfonyl]-5-(piperidin-4-yloxy)-1H-indazole] | 11 to 25 nM |
| Cc1cccc(S(=O)(=O)c2n[nH]c3ccc(OC4CCNCC4)cc23)c1 [Example 12, 3-[(3-methylphenyl)sulfonyl]-5-(piperidin-4-yloxy)-1H-indazole] | 0.01 to 10 nM |
| COc1cccc(S(=O)(=O)c2n[nH]c3ccc(OC4CCNCC4)cc23)c1 [Example 13, 3-[(3-methoxyphenyl)sulfonyl]-5-(piperidin-4-yloxy)-1H-indazole] | 0.01 to 10 nM |
| COc1ccc(S(=O)(=O)c2n[nH]c3ccc(OC4CCNCC4)cc23)cc1 [Example 14, 3-[(4-methoxyphenyl)sulfonyl]-5-(piperidin-4-yloxy)-1H-indazole] | > 45 nM |
| O=S(=O)(c1cccc(C(F)(F)F)c1)c1n[nH]c2ccc(OC3CCNCC3)cc12 [Example 15, 5-(piperidin-4-yloxy)-3-{[3-(trifluoromethyl)phenyl]sulfonyl}-1H-indazole] | 0.01 to 10 nM |
| O=S(=O)(c1ccc(C(F)(F)F)cc1)c1n[nH]c2ccc(OC3CCNCC3)cc12 [Example 16, 5-(piperidin-4-yloxy)-3-{[4-(trifluoromethyl)phenyl]sulfonyl}-1H-indazole] | 11 to 25 nM |
| CC(C)c1ccc(S(=O)(=O)c2n[nH]c3ccc(OC4CCNCC4)cc23)cc1 [Example 17, 3-[(4-isopropylphenyl)sulfonyl]-5-(piperidin-4-yloxy)-1H-indazole] | 11 to 25 nM |
| Cc1ccc(S(=O)(=O)c2n[nH]c3ccc(OC4CCNCC4)cc23)c2ccccc12 [Example 18, 3-[(4-methyl-1-naphthyl)sulfonyl]-5-(piperidin-4-yloxy)-1H-indazole] | 0.01 to 10 nM |
| CCCN1CCC(Oc2ccc3[nH]nc(S(=O)(=O)c4cccc5ccccc45)c3c2)CC1 [Example 19, 3-(1-Naphthylsulfonyl)-5-(1-propylpiperidin-4-yloxy)-1H-indazole Hydrochloride] | 0.01 to 10 nM |
| CCCCN1CCC(Oc2ccc3[nH]nc(S(=O)(=O)c4cccc5ccccc45)c3c2)CC1 [Example 20, 5-(1-Butylpiperidin-4-yloxy)-3-(1-naphthylsulfonyl)-1H-indazole Hydrochloride] | 0.01 to 10 nM |
| CN1CCC(Oc2ccc3[nH]nc(S(=O)(=O)c4cccc5ccccc45)c3c2)CC1 [Example 21, 5-(1-Methylpiperidin-4-yloxy)-3-(1-naphthylsulfonyl)-1H-indazole Hydrochloride] | 0.01 to 10 nM |
| CC(C)N1CCC(Oc2ccc3[nH]nc(S(=O)(=O)c4cccc5ccccc45)c3c2)CC1 [Example 22, 5-(1-Isopropylpiperidin-4-yloxy)-3-(1-naphthylsulfonyl)-1H-indazole Hydrochloride] | 0.01 to 10 nM |

| SMILES | Ki |
| --- | --- |
| O=S(=O)(c1cccc2ccccc12)c1n[nH]c2ccc(OC3CCN(CCc4ccccc4)CC3)cc12 [Example 23, 3-(1-Naphthylsulfonyl)-5-{[1-(2-phenylethyl)piperidin-4-yl]oxy}-1H-indazole Hydrochloride] | 11 to 25 nM |
| CCN1CCC(Oc2ccc3[nH]nc(S(=O)(=O)c4cccc5ccccc45)c3c2)CC1 [Example 24, 5-[1-(Ethylpiperidin-4-yl)oxy]-3-(1-naphthylsulfonyl)-1H-indazole Hydrochloride] | 0.01 to 10 nM |
| CCN1CCC(Oc2ccc3[nH]nc(S(=O)(=O)c4cccc5ccccc45)c3c2)C1 (centres unmarked) [Example 25, 5-[1-(Ethylpyrrolidin-3-yl)oxy]-3-(1-napthylsulfonyl)-1H-indazole Hydrochloride] | 0.01 to 10 nM |
| O=S(=O)(c1cccc2ccccc12)c1n[nH]c2ccc(OC3CCN(CCc4ccccc4)C3)cc12 (centres unmarked) [Example 26, 3-(1-Naphthylsulfonyl)-5-{[1-(2-phenylethyl)pyrrolidin-3-yl]oxy}-1H-indazole Hydrochloride] | 11 to 25 nM |
| O=S(=O)(c1cccc2ccccc12)c1n[nH]c2ccc(NC3CCNCC3)cc12 [Example 30, [3-(1-Naphthylsulfonyl)-1H-indazol-5-yl]-piperidin-4-ylamine Dihydrochloride] | 0.01 to 10 nM |
| O=S(=O)(c1cccc2ccccc12)c1n[nH]c2ccc(NCC3CCNCC3)cc12 [Example 31, 3-(1-Naphthylsulfonyl)-N-(piperidin-4-ylmethyl)-1H-indazol-5-amine Dihydrochloride] | 0.01 to 10 nM |
| O=S(=O)(c1cccc2ccccc12)c1n[nH]c2ccc(NC3CCCNC3)cc12 (centres unmarked) [Example 32, 3-(1-Naphthylsulfonyl)-N-piperidin-3-yl-1H-indazol-5-amine Dihydrochloride] | 0.01 to 10 nM |
| O=S(=O)(c1cccc2ccccc12)c1n[nH]c2cc(NC3CCNCC3)ccc12 [Example 33, 3-(1-Naphthylsulfonyl)-N-piperidin-4-yl-1H-indazol-6-amine Dihydrochloride] | > 45 nM |
| O=S(=O)(c1cccc2ccccc12)c1n[nH]c2cc(NC3CCCNC3)ccc12 (centres unmarked) [Example 34, 3-(1-Naphthylsulfonyl)-N-piperidin-3-yl-1H-indazol-6-amine Dihydrochloride] | > 45 nM |
| O=S(=O)(c1cccc2ccccc12)c1n[nH]c2cc(NCC3CCNCC3)ccc12 [Example 35, 3-(1-Naphthylsulfonyl)-N-(piperidin-4-ylmethyl)-1H-indazol-6-amine Dihydrochloride] | 36 to 45 nM |
| O=S(=O)(c1cccc2ccccc12)c1n[nH]c2c(NC3CCNCC3)cccc12 [Example 36, 3-(1-Naphthylsulfonyl)-N-piperidin-4-yl-1H-indazol-7-amine Dihydrochloride] | 26 to 35 nM |
| O=S(=O)(c1cccc2ccccc12)c1n[nH]c2c(NC3CCCNC3)cccc12 (centres unmarked) [Example 37, 3-(1-Naphthylsulfonyl)-N-piperidin-3-yl-1H-indazol-7-amine Dihydrochloride] | > 45 nM |
| O=S(=O)(c1cccc2ccccc12)c1n[nH]c2c(NCC3CCNCC3)cccc12 [Example 38, 3-(1-Naphthylsulfonyl)-N-(piperidin-4-ylmethyl)-1H-indazol-7-amine Dihydrochloride] | 11 to 25 nM |
| O=S(=O)(c1cccc2ccccc12)c1n[nH]c2cccc(NC3CCNCC3)c12 [Example 39, 3-(1-Naphthylsulfonyl)-N-piperidin-4-yl-1H-indazol-4-amine Dihydrochloride] | 0.01 to 10 nM |
| O=S(=O)(c1cccc2ccccc12)c1n[nH]c2cccc(NC3CCCNC3)c12 (centres unmarked) [Example 40, 3-(1-Naphthylsulfonyl)-N-piperidin-3-yl-1H-indazol-4-amine Dihydrochloride] | 0.01 to 10 nM |
| O=S(=O)(c1cccc2ccccc12)c1n[nH]c2cccc(NCC3CCNCC3)c12 [Example 41, 3-(1-Naphthylsulfonyl)-N-(piperidin-4-ylmethyl)-1H-indazol-4-amine Dihydrochloride] | 0.01 to 10 nM |
| O=S(=O)(c1cccc(Cl)c1)c1n[nH]c2ccc(NC3CCNCC3)cc12 [Example 42, 3-[(3-chlorophenyl)sulfonyl]-N-piperidin-4-yl-1H-indazol-5-amine] | 0.01 to 10 nM |
| O=S(=O)(c1ccc(Cl)cc1)c1n[nH]c2ccc(NC3CCNCC3)cc12 [Example 43, 3-[(4-chlorophenyl)sulfonyl]-N-piperidin-4-yl-1H-indazol-5-amine] | 0.01 to 10 nM |
| O=S(=O)(c1ccc2ccccc2c1)c1n[nH]c2ccc(NC3CCNCC3)cc12 [Example 44, 3-(2-naphthylsulfonyl)-N-piperidin-4-yl-1H-indazol-5-amine] | 0.01 to 10 nM |
| O=S(=O)(c1cccc(F)c1)c1n[nH]c2ccc(NC3CCNCC3)cc12 [Example 45, 3-[(3-fluorophenyl)sulfonyl]-N-piperidin-4-yl-1H-indazol-5-amine] | 0.01 to 10 nM |
| O=S(=O)(c1ccc(F)cc1)c1n[nH]c2ccc(NC3CCNCC3)cc12 [Example 46, 3-[(4-fluorophenyl)sulfonyl]-N-piperidin-4-yl-1H-indazol-5-amine] | 0.01 to 10 nM |
| CC(C)c1ccc(S(=O)(=O)c2n[nH]c3ccc(NC4CCNCC4)cc23)cc1 [Example 47, 3-[(4-isopropylphenyl)sulfonyl]-N-piperidin-4-yl-1H-indazol-5-amine] | 0.01 to 10 nM |
